# Reference: patent US10934285B2, “Compounds and compositions for inhibiting the activity of SHP2” (Novartis AG, priority 2016, dated 2021)
# Molecular target: SHP2 (Homo sapiens (Human), UniProt Q06124)
# Test: SHP2 Allosteric Inhibition Assay
# Assay type: biochemical
# Conditions: 0.5 nM SHP2 activated with 0.5 μM peptide IRS1_pY1172(dPEG8)pY1222; surrogate substrate DiFMUP; prompt fluorescence
# Excerpt: SHP2 Allosteric Inhibition Assay
# SHP2 is allosterically activated through binding of bis-tyrosyl-phorphorylated peptides to its Src Homology 2 (SH2) domains. The latter activation step leads to the release of the auto-inhibitory interface of SHP2, which in turn renders the SHP2 protein tyrosine phosphatase (PTP) active and available for substrate recognition and reaction catalysis. The catalytic activity of SHP2 was monitored using the surrogate substrate DiFMUP in a prompt fluorescence assay format.
# After 30-60 minutes incubation at 25° C., the surrogate substrate DiFMUP (Invitrogen, cat #D6567) was added to the reaction and incubated at 25° C. for 30 minutes. […] The inhibitor dose response curves were analyzed using normalized IC50 regression curve fitting with control based normalization.
# Chain of SHP2 (Q06124 whole entry): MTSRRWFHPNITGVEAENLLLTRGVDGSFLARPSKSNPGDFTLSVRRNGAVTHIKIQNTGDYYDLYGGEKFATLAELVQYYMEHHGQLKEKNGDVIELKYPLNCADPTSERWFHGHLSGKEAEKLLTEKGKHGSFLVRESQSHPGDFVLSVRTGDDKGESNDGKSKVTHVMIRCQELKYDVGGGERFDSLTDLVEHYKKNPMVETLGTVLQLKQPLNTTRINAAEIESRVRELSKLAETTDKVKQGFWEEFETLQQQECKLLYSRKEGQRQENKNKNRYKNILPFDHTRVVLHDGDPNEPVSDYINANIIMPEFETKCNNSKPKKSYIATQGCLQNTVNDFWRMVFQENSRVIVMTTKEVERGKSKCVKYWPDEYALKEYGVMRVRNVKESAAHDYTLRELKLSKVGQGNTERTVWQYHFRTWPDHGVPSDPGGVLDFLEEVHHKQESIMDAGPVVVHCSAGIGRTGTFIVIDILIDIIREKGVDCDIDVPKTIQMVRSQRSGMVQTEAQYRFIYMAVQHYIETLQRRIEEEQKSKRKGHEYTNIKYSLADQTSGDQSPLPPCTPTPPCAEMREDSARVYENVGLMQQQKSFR
row,SMILES,IC50 [µM]
1,"Nc1nc(N2CCC3(CCC[C@H]3N)CC2)nnc1Sc1cccc(NC(=O)c2c(O)nc3n(c2=O)CCCC3)c1Cl [Example 43, (R)-N-(3-((5-amino-3-(1-amino-8-azaspiro[4.5]decan-8-yl)-1,2,4-triazin-6-yl)thio)-2-chlorophenyl)-2-hydroxy-4-oxo-6,7,8,9-tetrahydro-4H-pyrido[1,2-a]pyrimidine-3-carboxamide]",0.0015
2,"Nc1nc(N2CCC3(CC2)COC[C@H]3N)cnc1Sc1cccc(NC(=O)c2c(O)nc3n(c2=O)CCCC3)c1Cl [Example 26, (S)—N-(3-((3-Amino-5-(4-amino-2-oxa-8-azaspiro[4.5]decan-8-yl)pyrazin-2-yl)thio)-2-chlorophenyl)-2-hydroxy-4-oxo-6,7,8,9-tetrahydro-4H-pyrido[1,2-a]pyrimidine-3-carboxamide]",0.018
3,"CC[C@@H]1OCC2(CCN(c3cnc(Sc4cccc(NC(=O)c5c(O)nc6n(c5=O)CCCC6)c4Cl)c(N)n3)CC2)[C@@H]1N [Example 29, N-(3-((3-amino-5-((3S,4S)-4-amino-3-ethyl-2-oxa-8-azaspiro[4.5]decan-8-yl)pyrazin-2-yl)thio)-2-chlorophenyl)-2-hydroxy-4-oxo-6,7,8,9-tetrahydro-4H-pyrido[1,2-a]pyrimidine-3-carboxamide]",0.012
4,"CC1(CN)CCN(c2nnc(Sc3cccc(NC(=O)c4c(O)nc5cnccn5c4=O)c3Cl)c(N)n2)CC1 [Example 34, N-(3-((5-amino-3-(4-(aminomethyl)-4-methylpiperidin-1-yl)-1,2,4-triazin-6-yl)thio)-2-chlorophenyl)-2-hydroxy-4-oxo-4H-pyrazino[1,2-a]pyrimidine-3-carboxamide]",0.014
5,"CC1(CN)CCN(c2nnc(Sc3cccc(NC(=O)c4c(O)nc5[nH]ccn5c4=O)c3Cl)c(N)n2)CC1 [Example 35, N-(3-((5-amino-3-(4-(aminomethyl)-4-methylpiperidin-1-yl)-1,2,4-triazin-6-yl)thio)-2-chlorophenyl)-7-hydroxy-5-oxo-1,5-dihydroimidazo[1,2-a]pyrimidine-6-carboxamide]",0.035
6,"Nc1nc(N2CCC(N)(C(F)(F)F)CC2)cnc1Sc1cccc(NC(=O)c2c(O)nc3ccccn3c2=O)c1Cl [Example 19, N-(3-((3-amino-5-(4-amino-4-(trifluoromethyl)piperidin-1-yl)pyrazin-2-yl)thio)-2-chlorophenyl)-2-hydroxy-4-oxo-4H-pyrido[1,2-a]pyrimidine-3-carboxamide]",2.19
7,"Cn1c(=O)c(C(=O)Nc2cccc(Sc3ncc(N4CCC(C)(CN)CC4)nc3N)c2Cl)c(O)c2c(C3CC3)csc21 [Example 4, N-(3-((3-amino-5-(4-(aminomethyl)-4-methylpiperidin-1-yl)pyrazin-2-yl)thio)-2-chlorophenyl)-3-cyclopropyl-4-hydroxy-7-methyl-6-oxo-6,7-dihydrothieno[2,3-b]pyridine-5-carboxamide]",1.03
8,"Cn1c(=O)c(C(=O)Nc2cccc(Sc3ncc(N4CCC(C)(CN)CC4)nc3N)c2Cl)c(O)c2ccccc21 [Example 8, N-(3-((3-amino-5-(4-(aminomethyl)-4-methylpiperidin-1-yl)pyrazin-2-yl)thio)-2-chlorophenyl)-4-hydroxy-1-methyl-2-oxo-1,2-dihydroquinoline-3-carboxamide]",0.044
9,"CCC1C(O)=C(C(=O)Nc2cccc(Sc3ncc(N4CCC(C)(N)CC4)nc3N)c2Cl)C(=O)N1C (stereo not drawn) [Example 55, N-(3-((3-amino-5-(4-amino-4-methylpiperidin-1-yl)pyrazin-2-yl)thio)-2-chlorophenyl)-5-ethyl-4-hydroxy-1-methyl-2-oxo-2,5-dihydro-1H-pyrrole-3-carboxamide]",0.0028
10,"Nc1nc(N2CCC3(CC2)CC(F)(F)C[C@H]3N)cnc1Sc1cccc(NC(=O)c2c(O)nc3n(c2=O)CCCC3)c1Cl [Example 28, (R)-N-(3-((3-amino-5-(1-amino-3,3-difluoro-8-azaspiro[4.5]decan-8-yl)pyrazin-2-yl)thio)-2-chlorophenyl)-2-hydroxy-4-oxo-6,7,8,9-tetrahydro-4H-pyrido[1,2-a]pyrimidine-3-carboxamide]",0.042
11,"CC1(CN)CCN(c2nnc(Sc3cccc(NC(=O)c4c(O)nc5ccccn5c4=O)c3Cl)c(N)n2)CC1 [Example 33, N-(3-((5-amino-3-(4-(aminomethyl)-4-methylpiperidin-1-yl)-1,2,4-triazin-6-yl)thio)-2-chlorophenyl)-2-hydroxy-4-oxo-4H-pyrido[1,2-a]pyrimidine-3-carboxamide]",0.01
12,"CC1(CN)CCN(c2nnc(Sc3cccc(NC(=O)c4c(O)nc5c6ccccc6ccn5c4=O)c3Cl)c(N)n2)CC1 [Example 39, N-(3-((5-amino-3-(4-(aminomethyl)-4-methylpiperidin-1-yl)-1,2,4-triazin-6-yl)thio)-2-chlorophenyl)-2-hydroxy-4-oxo-4H-pyrimido[2,1-a]isoquinoline-3-carboxamide]",0.013
13,"Nc1nc(N2CCC3(CCC[C@H]3N)CC2)cnc1Sc1cccc(NC(=O)c2c(O)nc3n(c2=O)CCCC3)c1Cl [Example 24, (R)-N-(3-((3-amino-5-(1-amino-8-azaspiro[4.5]decan-8-yl)pyrazin-2-yl)thio)-2-chlorophenyl)-2-hydroxy-4-oxo-6,7,8,9-tetrahydro-4H-pyrido[1,2-a]pyrimidine-3-carboxamide]",0.001
14,"C[C@@H]1CN(c2cnc(Sc3cccc(NC(=O)C4=C(O)CN(c5ccccc5)C4=O)c3Cl)c(N)n2)C[C@H](C)N1 [Example 57, N-(3-((3-amino-5-(cis-3,5-dimethylpiperazin-1-yl)pyrazin-2-yl)thio)-2-chlorophenyl)-4-hydroxy-2-oxo-1-phenyl-2,5-dihydro-1H-pyrrole-3-carboxamide]",0.011
15,"CC1(CN)CCN(c2cnc(Sc3cccc(NC(=O)c4c(O)nc5n(c4=O)CCCC5)c3Cl)cn2)CC1 [Example 45, N-(3-((5-(4-(aminomethyl)-4-methylpiperidin-1-yl)pyrazin-2-yl)thio)-2-chlorophenyl)-2-hydroxy-4-oxo-6,7,8,9-tetrahydro-4H-pyrido[1,2-a]pyrimidine-3-carboxamide]",0.007
16,"CC1(N)CCN(c2nnc(Sc3cccc(NC(=O)c4c(O)nc5ccccn5c4=O)c3Cl)c(N)n2)CC1 [Example 41, N-(3-((5-amino-3-(4-amino-4-methylpiperidin-1-yl)-1,2,4-triazin-6-yl)thio)-2-chlorophenyl)-2-hydroxy-4-oxo-4H-pyrido[1,2-a]pyrimidine-3-carboxamide]",0.011
17,"C[C@@H]1OCC2(CCN(c3cnc(Sc4cccc(NC(=O)c5c(O)nc6n(c5=O)CCCC6)c4Cl)c(N)n3)CC2)[C@@H]1N [Example 27, N-(3-((3-Amino-5-((3S,4S)-4-amino-3-methyl-2-oxa-8-azaspiro[4.5]decan-8-yl)pyrazin-2-yl)thio)-2-chlorophenyl)-2-hydroxy-4-oxo-6,7,8,9-tetrahydro-4H-pyrido[1,2-a]pyrimidine-3-carboxamide]",0.023
18,"CC1(CN)CCN(c2nnc(Sc3cccc(NC(=O)C4=C(O)CN(c5ccccc5)C4=O)c3Cl)c(N)n2)CC1 [Example 51, N-(3-((5-amino-3-(4-(aminomethyl)-4-methylpiperidin-1-yl)-1,2,4-triazin-6-yl)thio)-2-chlorophenyl)-4-hydroxy-2-oxo-1-phenyl-2,5-dihydro-1H-pyrrole-3-carboxamide]",0.012
19,"C[C@@H]1CC2(CCN(c3cnc(Sc4cccc(NC(=O)c5c(O)nc6n(c5=O)CCCC6)c4Cl)c(N)n3)CC2)[C@H](N)[C@H]1F [Example 30, N-(3-((3-amino-5-((1S,2S,3R)-1-amino-2-fluoro-3-methyl-8-azaspiro[4.5]decan-8-yl)pyrazin-2-yl)thio)-2-chlorophenyl)-2-hydroxy-4-oxo-6,7,8,9-tetrahydro-4H-pyrido[1,2-a]pyrimidine-3-carboxamide]",0.016
20,"NCC1(O)CCN(c2cnc(Sc3cccc(NC(=O)c4c(O)nc5n(c4=O)CCCC5)c3Cl)c(N)n2)CC1 [Example 11, N-(3-((3-amino-5-(4-(aminomethyl)-4-hydroxypiperidin-1-yl)pyrazin-2-yl)thio)-2-chlorophenyl)-2-hydroxy-4-oxo-6,7,8,9-tetrahydro-4H-pyrido[1,2-a]pyrimidine-3-carboxamide]",0.012
21,"NCC1(O)CCN(c2cnc(Sc3cccc(NC(=O)c4c(O)nc5ccccn5c4=O)c3Cl)c(N)n2)CC1 [Example 10, N-(3-((3-amino-5-(4-(aminomethyl)-4-hydroxypiperidin-1-yl)pyrazin-2-yl)thio)-2-chlorophenyl)-2-hydroxy-4-oxo-4H-pyrido[1,2-a]pyrimidine-3-carboxamide]",0.006
22,"Nc1nc(N2CCC3(CCC[C@H]3N)CC2)nnc1Sc1cccc(NC(=O)c2c(O)nc3ccccn3c2=O)c1Cl [Example 42, (R)-N-(3-((5-amino-3-(1-amino-8-azaspiro[4.5]decan-8-yl)-1,2,4-triazin-6-yl)thio)-2-chlorophenyl)-2-hydroxy-4-oxo-4H-pyrido[1,2-a]pyrimidine-3-carboxamide]",0.016
23,"Nc1nc(N2CCC3(CCC[C@H]3N)CC2)cnc1Sc1cccc(NC(=O)c2c(O)nc3ccccn3c2=O)c1Cl [Example 23, (R)-N-(3-((3-amino-5-(1-amino-8-azaspiro[4.5]decan-8-yl)pyrazin-2-yl)thio)-2-chlorophenyl)-2-hydroxy-4-oxo-4H-pyrido[1,2-a]pyrimidine-3-carboxamide]",0.005
24,"CC1(CN)CCN(c2nnc(Sc3cccc(NC(=O)c4c(O)nc5sccn5c4=O)c3Cl)c(N)n2)CC1 [Example 32, N-(3-((5-amino-3-(4-(aminomethyl)-4-methylpiperidin-1-yl)-1,2,4-triazin-6-yl)thio)-2-chlorophenyl)-7-hydroxy-5-oxo-5H-thiazolo[3,2-a]pyrimidine-6-carboxamide]",0.008
